Experimental data: the NIST ThermoML archive (doi:10.1016/j.jct.2010.08.019)

Assay: xn = mol fraction of the nth substance listed
Details: for surface tension liquid-gas: Wilhelmy-plate method; for viscosity / mass density: 101 kPa, Liquid; for viscosity: Falling or rolling sphere viscometry; for mass density: Vibrating tube method

CC(C)CC(C)(C)C [2,2,4-trimethylpentane] + CC(C)O
Details | mass density [kg/m3] | surface tension liquid-gas [mN/m] | viscosity [mPa·s]
293.15 K, x2 = 0 | 691.98 | 18.8 | 0.503
293.15 K, x2 = 0.0501 | 693.38 | – | 0.502
293.15 K, x2 = 0.1006 | 695.3 | 18.8 | 0.509
293.15 K, x2 = 0.1512 | 697.45 | – | 0.517
293.15 K, x2 = 0.2003 | 699.71 | 18.9 | 0.53
293.15 K, x2 = 0.2501 | 702.18 | – | 0.543
293.15 K, x2 = 0.3003 | 704.91 | 19 | 0.563
293.15 K, x2 = 0.3502 | 707.91 | – | 0.593
293.15 K, x2 = 0.4004 | 711.2 | 19 | 0.628
293.15 K, x2 = 0.4502 | 714.74 | – | 0.662
293.15 K, x2 = 0.5001 | 718.61 | 19.2 | 0.699
293.15 K, x2 = 0.55 | 722.8 | – | 0.755
293.15 K, x2 = 0.5998 | 727.34 | 19.3 | 0.82
293.15 K, x2 = 0.6502 | 732.45 | – | 0.906
293.15 K, x2 = 0.7002 | 737.93 | 19.6 | 1.004
293.15 K, x2 = 0.7499 | 743.9 | – | 1.12
293.15 K, x2 = 0.7999 | 750.57 | 20 | 1.264
293.15 K, x2 = 0.85 | 757.91 | – | 1.439
293.15 K, x2 = 0.8999 | 766.04 | 20.6 | 1.666
293.15 K, x2 = 0.95 | 775.2 | – | 1.96
303.15 K, x2 = 0 | 683.61 | 17.9 | 0.447
303.15 K, x2 = 0.05 | 684.93 | – | 0.444
303.15 K, x2 = 0.1 | 686.65 | 17.9 | 0.45
303.15 K, x2 = 0.1499 | 688.68 | – | 0.457
303.15 K, x2 = 0.2004 | 690.94 | 17.9 | 0.464
303.15 K, x2 = 0.2497 | 693.36 | – | 0.474
303.15 K, x2 = 0.3 | 696.11 | 18 | 0.491
303.15 K, x2 = 0.3499 | 699.03 | – | 0.508
303.15 K, x2 = 0.4008 | 702.3 | 18 | 0.532
303.15 K, x2 = 0.4503 | 705.79 | – | 0.558
303.15 K, x2 = 0.5 | 709.61 | 18.1 | 0.589
303.15 K, x2 = 0.5498 | 713.82 | – | 0.633
303.15 K, x2 = 0.6001 | 718.44 | 18.3 | 0.682
303.15 K, x2 = 0.65 | 723.45 | – | 0.745
303.15 K, x2 = 0.7001 | 728.94 | 18.6 | 0.814
303.15 K, x2 = 0.7495 | 734.92 | – | 0.899
303.15 K, x2 = 0.7989 | 741.51 | 19 | 0.995
303.15 K, x2 = 0.8499 | 748.97 | – | 1.158
303.15 K, x2 = 0.8997 | 757.15 | 19.6 | 1.307
303.15 K, x2 = 0.95 | 766.32 | – | 1.485
313.15 K, x2 = 0 | 675.23 | 16.9 | 0.404
313.15 K, x2 = 0.0499 | 676.34 | – | 0.398
313.15 K, x2 = 0.1001 | 677.92 | 16.9 | 0.401
313.15 K, x2 = 0.1503 | 679.86 | – | 0.405
313.15 K, x2 = 0.2001 | 682.09 | 16.9 | 0.412
313.15 K, x2 = 0.2499 | 684.47 | – | 0.42
313.15 K, x2 = 0.3003 | 687.15 | 17 | 0.43
313.15 K, x2 = 0.3497 | 689.97 | – | 0.449
313.15 K, x2 = 0.4 | 693.18 | 17.1 | 0.458
313.15 K, x2 = 0.4502 | 696.67 | – | 0.476
313.15 K, x2 = 0.5005 | 700.49 | 17.2 | 0.5
313.15 K, x2 = 0.5499 | 704.67 | – | 0.529
313.15 K, x2 = 0.6 | 709.23 | 17.5 | 0.569
313.15 K, x2 = 0.6498 | 714.27 | – | 0.61
313.15 K, x2 = 0.6999 | 719.71 | 17.8 | 0.657
313.15 K, x2 = 0.75 | 725.83 | – | 0.719
313.15 K, x2 = 0.7998 | 732.49 | 18.2 | 0.782
313.15 K, x2 = 0.8498 | 739.89 | – | 0.87
313.15 K, x2 = 0.8999 | 748.21 | 18.8 | 0.987
313.15 K, x2 = 0.9499 | 757.39 | – | 1.129
323.15 K, x2 = 0 | 666.8 | 16.2 | 0.365
323.15 K, x2 = 0.0501 | 667.65 | – | 0.359
323.15 K, x2 = 0.1 | 669.08 | 16.2 | 0.36
323.15 K, x2 = 0.15 | 670.98 | – | 0.366
323.15 K, x2 = 0.1998 | 673.08 | 16.2 | 0.37
323.15 K, x2 = 0.25 | 675.42 | – | 0.375
323.15 K, x2 = 0.3 | 677.99 | 16.2 | 0.383
323.15 K, x2 = 0.35 | 680.86 | – | 0.392
323.15 K, x2 = 0.4 | 683.93 | 16.3 | 0.403
323.15 K, x2 = 0.4499 | 687.34 | – | 0.417
323.15 K, x2 = 0.5 | 691.07 | 16.4 | 0.433
323.15 K, x2 = 0.5501 | 695.17 | – | 0.456
323.15 K, x2 = 0.6 | 699.74 | 16.7 | 0.479
323.15 K, x2 = 0.65 | 704.78 | – | 0.508
323.15 K, x2 = 0.7 | 710.22 | 17 | 0.544
323.15 K, x2 = 0.7499 | 716.22 | – | 0.588
323.15 K, x2 = 0.7999 | 722.88 | 17.4 | 0.632
323.15 K, x2 = 0.85 | 730.48 | – | 0.696
323.15 K, x2 = 0.9 | 738.82 | 18 | 0.776
323.15 K, x2 = 0.95 | 748.16 | – | 0.875
